Reference: PubChem BioAssay (NCI)
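Dose response: 5 concentrations. Exposure: 48 h. Format: 96-well plates. Endpoint: linear interpolation; highest concentration if not reached. The concentration for 50% growth inhibition is given as GI50. TGI is the concentration that stops growth completely.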

How the values were obtained:
Test in all cases: NCI-60 cell line screen, 48 h
[1] = tested on: M14 melanoma
[2] = tested on: MALME-3M melanoma
[3] = tested on: MOLT-4 leukemia
[4] = tested on: OVCAR-3 ovarian
[5] = tested on: RPMI-8226 leukemia
[6] = tested on: SF-295 CNS
[7] = tested on: SK-MEL-2 melanoma
[8] = tested on: SNB-19 CNS
[9] = tested on: TK-10 renal
[10] = tested on: MDA-MB-231 breast

| Compound | TGI [1] | TGI [2] | TGI [3] | TGI [4] | TGI [5] | TGI [6] | TGI [7] | TGI [8] | TGI [9] | GI50 [1] | GI50 [10] | GI50 [3] | GI50 [4] | GI50 [5] | GI50 [6] | GI50 [7] | GI50 [8] | GI50 [2] | GI50 [9] | TGI [10] |
| --- | --- | --- | --- | --- | --- | --- | --- | --- | --- | --- | --- | --- | --- | --- | --- | --- | --- | --- | --- | --- |
| N#Cc1nc(Nc2ccc([N+](=O)[O-])cc2)sc1N | 66.8 µM | > 91.4 µM | > 82 µM | > 69.4 µM | > 59.2 µM | > 100 µM | 53.2 µM | > 95.1 µM | > 77 µM | – | – | – | – | – | – | – | – | – | – | – |
| COc1ccc(-c2[nH]ncc2-c2cc(OC)c(OC)c(OC)c2)cc1 | 0.852 µM | – | 4.66 µM | – | 16 µM | < 0.01 µM | 0.517 µM | > 100 µM | – | < 0.01 µM | 0.0271 µM | 0.0308 µM | < 0.01 µM | 0.0132 µM | < 0.01 µM | < 0.01 µM | < 0.01 µM | – | – | – |
| CCOC(=O)C1(C(=O)OCC)CC=C(C)CC12C(=O)Nc1ccccc12 (stereo unspecified) | > 100 µM | > 100 µM | > 100 µM | > 100 µM | > 100 µM | > 100 µM | > 100 µM | > 100 µM | > 100 µM | – | – | – | – | – | – | – | – | – | – | – |
| CN(C)CCCC(=O)Nc1ccc(Cn2nnc3c2C(=O)c2nnn(Cc4ccc(NC(=O)CCCN(C)C)cc4)c2C3=O)cc1 | 24.3 µM | 2.94 µM | 5.2 µM | 6.02 µM | 15.9 µM | 31.5 µM | 4.64 µM | – | > 100 µM | 5.97 µM | – | 1.96 µM | 2.38 µM | 3.17 µM | 14.4 µM | 2.17 µM | – | 1.39 µM | > 100 µM | – |
| CC1=C(c2cc(C(=O)Nc3cccc(C(F)(F)F)c3)nc(NC#N)n2)Sc2ccccc2N1 | > 100 µM | > 100 µM | > 100 µM | > 100 µM | > 100 µM | > 100 µM | > 100 µM | > 100 µM | > 100 µM | – | – | – | – | – | – | – | – | – | – | – |
| Clc1ccc(Nc2nc3ccccc3c3occc23)cc1 | 16.9 µM | – | – | 12.1 µM | 27.4 µM | 13.3 µM | 21.7 µM | 16.2 µM | 11 µM | 8.46 µM | 9.1 µM | – | 5.92 µM | 11.3 µM | 6.86 µM | 9.53 µM | 8.78 µM | – | 4.99 µM | 24.7 µM |
| CC(C)(C)C(=O)OCC(COC(=O)C(C)(C)C)[N+](=O)[O-] | > 100 µM | > 100 µM | > 100 µM | > 100 µM | > 100 µM | > 100 µM | > 100 µM | > 100 µM | > 100 µM | – | – | – | – | – | – | – | – | – | – | – |
| COc1ccc(N2C(=O)C3c4[nH]c5ccccc5c4C4CCC(C(C)(C)C)CC4C3C2=O)cc1OC (stereo unspecified) | > 100 µM | > 100 µM | 43.9 µM | – | 61.5 µM | 42.6 µM | – | 71.3 µM | – | – | – | – | – | – | – | – | – | – | – | – |
| O=C1CCC(=O)C12CCc1cccc(O)c12 | > 100 µM | > 100 µM | – | > 100 µM | > 100 µM | > 100 µM | – | – | > 100 µM | – | – | – | – | – | – | – | – | – | – | – |
| CCc1nc(N)nc(N)c1-c1ccc(Cl)c(N=NN(C)C)c1 | 58.9 µM | – | 73.5 µM | > 91.5 µM | 49 µM | > 100 µM | 62.1 µM | > 100 µM | > 100 µM | – | – | – | – | – | – | – | – | – | – | > 100 µM |
| COC1(OC)c2ccccc2C2(O)c3ccccc3C(=O)C12 (stereo unspecified) | > 100 µM | > 100 µM | 80.9 µM | > 100 µM | 62.5 µM | > 100 µM | > 100 µM | > 100 µM | > 100 µM | – | – | – | – | – | – | – | – | – | – | – |
| Cn1cnc([N+](=O)[O-])c1Sc1nnc(C(F)(F)F)n1C | 37.2 µM | 44 µM | 38.2 µM | 55.6 µM | 49.9 µM | > 100 µM | 48.5 µM | > 100 µM | 74.4 µM | – | – | – | – | – | – | – | – | – | – | – |
| COc1ccc(/C=C/C(C(=O)O)C(=O)O)cc1 | > 100 µM | > 100 µM | 84.8 µM | > 100 µM | > 100 µM | > 100 µM | > 100 µM | > 100 µM | > 100 µM | – | – | – | – | – | – | – | – | – | – | – |
| CCc1cccc(C(C)CC)c1NC(=O)CC1C(=O)Nc2ccccc2S1=O (stereo unspecified) | 55.8 µM | > 100 µM | 69 µM | > 100 µM | > 100 µM | > 100 µM | > 100 µM | > 100 µM | > 100 µM | – | – | – | – | – | – | – | – | – | – | – |
| C=C1C(=O)O[C@H]2[C@H]1CC(=O)/C(C)=C\CC[C@@]1(C)O[C@@H]21 | 11.8 µg/mL | – | 4.7 µg/mL | 3.71 µg/mL | 1.3 µg/mL | 12.4 µg/mL | 8.47 µg/mL | 16.1 µg/mL | 5.38 µg/mL | 3.38 µg/mL | 4.58 µg/mL | 1.12 µg/mL | 0.795 µg/mL | 0.514 µg/mL | 5.55 µg/mL | 3.99 µg/mL | 7.62 µg/mL | – | 1.93 µg/mL | 8.82 µg/mL |
| CN(C)CCNC(=O)c1cccc2c1nc(-c1ccccn1)c1ccccc12 | 32.2 µM | – | – | 38.6 µM | – | 41.1 µM | 34 µM | > 100 µM | – | – | – | – | – | – | – | – | – | – | – | – |
| COc1cccc(C2C(C#N)=C(N)Oc3cc(OC)ccc32)c1 (stereo unspecified) | > 100 µM | – | > 37.4 µM | 1.18 µM | 23.7 µM | 33.9 µM | – | > 89.6 µM | 74.1 µM | 0.0271 µM | 0.0519 µM | 0.0598 µM | 0.0244 µM | 0.0372 µM | 0.0286 µM | – | 0.517 µM | – | 11.8 µM | 1.49 µM |
| COc1ccc(S(=O)(=O)N/N=C(\C)CN2C(=O)c3ccccc3C2=O)cc1 | > 100 µM | > 100 µM | > 100 µM | > 100 µM | > 100 µM | > 100 µM | > 100 µM | > 100 µM | > 100 µM | – | – | – | – | – | – | – | – | – | – | – |
| CC1(CO)C(=O)OC12CCCCC2 (stereo unspecified) | > 100 µM | > 100 µM | > 100 µM | > 100 µM | > 100 µM | > 100 µM | > 100 µM | > 100 µM | > 100 µM | – | – | – | – | – | – | – | – | – | – | – |
| COc1ccc(CCC2NCCc3cc(OC)c(OC)cc32)cc1 (stereo unspecified) | > 100 µM | > 100 µM | > 100 µM | > 100 µM | > 100 µM | > 100 µM | > 100 µM | > 100 µM | > 100 µM | – | – | – | – | – | – | – | – | – | – | – |
| C=CCNc1cccc2c1C(=O)c1ccccc1C2(O)CC=C (stereo unspecified) | 41 µM | – | > 100 µM | – | 44.6 µM | 55 µM | 47.6 µM | 44.7 µM | 57.8 µM | 19 µM | 12.3 µM | 41.8 µM | – | 17.4 µM | 25.7 µM | 20.7 µM | 18.5 µM | – | 25.2 µM | 28.3 µM |
